Legend:
A2780-1A9 = experiment: MTT cell cytotoxicity assay; type: cell-based, human
Method: (§1) Cell survival was determined using the MTT assay (3-[4,5-dimethylthiazol-2-yl]-2,5-diphenyltetrazolium bromide; Sigma, Saint-Quentin Fallavier, France). The conversion of yellow water-soluble tetrazolium MTT into purple insoluble formazan is catalyzed by mitochondrial dehydrogenases and used to estimate the number of viable cells. In brief, cells were seeded in 96-well tissue culture plates at a density of 2×10^3 cells/well. After 72 h drug exposure and 48 h wash-out, cells were incubated with 0.4 mg/ml MTT for 4 hours at 37° C. After incubation, the supernatant was discarded, insoluble formazan precipitates were dissolved in 0.1 ml of DMSO and the absorbance was measured at 560 nm by use of a microplate reader (Thermo, France). Wells with untreated cells or with drug-containing medium without cells were used as positive and negative controls respectively. IC50's were determined as the halves of maximal inhibitory drug concentration for each cell line.
(§2) The antiproliferative effects of OTX-008 and anginex were assessed using MTT assay in a panel of human cancer cell lines of human origins expressing various levels of Lgals-1 mRNA and galectin-1 protein expressions (Supplementary Table 1). […] Remaining cell lines were less sensitive to OTX-008 with GI50 values >9 μM. […] No correlation between mRNA expressions of galectin-2, galectin-3, and galectin-8 as well as semaphorin-3A, semaphorin-3B, neuropilin-1, VEGFR1-3, VEGFA-D, and PDGFRa&P3 and sensitivity to OTX-008 were detected in the panel.

OVCAR3 = experiment: MTT cell cytotoxicity assay; type: cell-based, human; conditions: 72 h drug exposure and 48 h wash-out
Method: as §1, §2

SQ20B = experiment: MTT cell cytotoxicity assay; type: cell-based, human
Method: as §1, §2

galectin-1 = target: T1, galectin-1 (Homo sapiens, UniProt P09382); experiment: Immunofluorescence of galectin-1 in SQ20B cells; type: cell-based
T1 construct: Western Blot of galectin-1 on SQ20B cells treated with 3 μM OTX-008 for 24 h, 48 h and 72 h; endogenous in cells; host or cells: SQ20B (ATCC)
T1 sequence (P09382 whole entry): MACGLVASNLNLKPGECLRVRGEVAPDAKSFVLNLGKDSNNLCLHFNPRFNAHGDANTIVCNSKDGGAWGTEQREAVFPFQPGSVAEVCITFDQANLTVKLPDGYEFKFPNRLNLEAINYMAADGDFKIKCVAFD
Method: FIG. 3. Effects of OTX-008 on galectin-1 expression and localization. A—Western Blot of galectin-1 on SQ20B cells treated with 3 μM OTX-008 for 24 h, 48 h and 72 h. B and C—Immunofluorescence of galectin-1 on SQ20B cells treated with 3 μM OTX-008 for 24 and 48 h. B—OTX-008 treatment decreases galectin-1 immunostaining in SQ20B cells. C—Galectin-1 translocates into the nucleus after OTX-008 exposure. D—Western Blot of p-AKTser473, AKT, p-S6, p-ERK1/2, ERK and p-PKCα in SQ20B cells treated with 3 μM OTX-008 for 10 min, 1 h, 2 h, 5 h and 24 h.
The cells were grown on cover slips at 37° C. overnight. The growth media was then removed; the cells were washed with PBS and fixed in 4% of paraformaldhyde for 15 min and permeabilized with PBS/tritonX100 (1:500) then washed again with PBS. Incubation with primary antibodies was performed at 4° C. overnight (galectin-1, 1:100; Abcam, Cambridge, Mass., USA), followed by the incubation with the secondary antibodies (anti-mouse, 1:100; Cell Signaling, Saint Quentin Yvelines, France) for 1 h at room temperature in the dark. The nuclei were stained with Dapi 1:10000 (Santa Cruz Biotechnology, Santa Cruz, Calif., USA). The images were captured and analyzed with a Zeiss observer Z1 microscope. Images quantification was performed using Histolab Software (Microvision, France) subtracting the background. Magnification ×20 and ×40.

GAL1 mRNA = experiment: Real-time RT-PCR of GAL1 mRNA; type: cell-based, human; conditions: OTX-008 exposed cancer cells
Excerpt: The theoretical and practical aspects of real-time quantitative RT-PCR using the ABI Prism 7900 Sequence Detection System (Perkin-Elmer Applied Biosystems, Foster City, Calif., USA) have been described in detail elsewhere Results were expressed as n-fold differences in target gene expression relative to the TBP gene (an endogenous RNA control) and relative to a calibrator (1× sample), consisting of the cell line sample from our tested series that contained the smallest amount of target gene mRNA. Experiments were performed in duplicate.

SQ20B cells = experiment: Cell cycle analysis by flow cytometry; type: cell-based, human; conditions: 72 h exposure
Method: Cell cycle analysis was assessed by flow cytometry. In brief, cells were seeded onto […] flasks and treated with various concentrations of OTX-008. After 72 h exposure, adherent and non-adherent cells were recovered, washed with PBS, fixed in 70% ethanol and stored at −20° C. until use. Cells were rehydrated in PBS, incubated for 30 minutes at 37° C. with 200 μg/ml RNAse A, and for 20 minutes at +4° C. with 40 μg/ml propidium iodide in the dark. The cell cycle distribution was determined with a flow cytometer (FACSCalibur and Cell Quest Pro software, BD Biosciences, Le-Pont-de-Claix, France).
To study the mechanism of OTX-008-induced inhibition of cell proliferation, the effect of OTX-008 on cell cycle in SQ20B cells was examined (FIG. 5B). […] Activation of cdc2 (cdk1) by de-phosphorylation of tyrosine 15 is required for G2/M transition. […] Thus, the level of phosphorylated cdc2 on tyrosine 15 and wee1 on serine 642 in SQ20B cell line were exposed to 3 μM OTX-008 for 72 h. […] In order to determine the potential relationship between the inhibition of MAPK signaling pathways and the effects on cell cycle by OTX-008, SQ20B cells were pretreated for 2 h with the ERK1/2 inhibitor UO126 followed by the OTX-008 addition for 72 hours.

cdc2 (tyrosine 15) = experiment: Western blot of phosphorylated cdc2 in SQ20B; type: cell-based, human; conditions: 3 μM OTX-008 for 72 h
Method: Cells were lysed in buffer containing 50 mM HEPES (pH 7.6), 150 mM NaCl, 1% Triton X-100, 2 mM sodium vanadate, 100 mM NaF, and 0.4 mg/ml phenylmethylsulfonyl fluoride. Equal amounts of protein (30 μg/lane) were subjected to SDS-PAGE and transferred to nitrocellulose membranes. Membranes were blocked with 5% milk in 0.05% Tween 20/phosphate-buffered saline and then incubated with the primary antibody overnight. Membranes were then washed and incubated with the secondary antibody conjugated to horseradish peroxidase. Bands were visualized by using the enhanced chemiluminescence Western blotting detection system. Densitometric analysis was performed under conditions that yielded a linear response. The following antibodies were used: anti-p-cdc2 (tyr15), anti-p-wee1 (ser642), anti-p-p44/42 MAPK (thr202/tyr204), anti-p44/42, anti-p-AKT (ser473), anti-AKT, anti-p-S6 (ser235/236) (Cell Signaling, Saint Quentin Yvelines, France), anti-p-PKCα (ser657) (BD Biosciences, Le-Pont-de-Claix, France) and anti-galectin-1 (Abcam, Cambridge, Mass., USA). All antibodies were used at a 1:1000 dilution.
To study the mechanism of OTX-008-induced inhibition of cell proliferation, the effect of OTX-008 on cell cycle in SQ20B cells was examined (FIG. 5B). […] Activation of cdc2 (cdk1) by de-phosphorylation of tyrosine 15 is required for G2/M transition. […]

[1] = 72 h drug exposure and 48 h wash-out

CN(C)CCNC(=O)COc1c2cccc1Cc1cccc(c1OCC(=O)NCCN(C)C)Cc1cccc(c1OCC(=O)NCCN(C)C)Cc1cccc(c1OCC(=O)NCCN(C)C)C2 [OTX-008]
sensitivity to OTX-008 (A2780-1A9): only marginally sensitive | antiproliferative effects (MTT) (A2780-1A9; [1]): dose-dependent antiproliferative effects | antiproliferative effects (MTT) (OVCAR3): dose-dependent antiproliferative effects | sensitivity to OTX-008 among the cell lines tested (SQ20B): most sensitive | antiproliferative effects (MTT) (SQ20B; [1]): dose-dependent antiproliferative effects | galectin-1 localization (galectin-1; 3 μM OTX-008): translocates from the cytoplasm to the nucleus | galectin-1 expression in the cytoplasm (immunofluorescence) (galectin-1; 3 μM OTX-008, 24 and 48 h): decrease galectin-1 expression | GAL1 mRNA expression (GAL1 mRNA): No change | cell cycle distribution (SQ20B cells): dose-dependent accumulation of cells in G2/M phase | cdc2 activity (phosphorylation on tyrosine 15) (cdc2 (tyrosine 15)): inactivated cdc2

Reference: patent publication US20140243415A1, “COMPOUNDS INHIBITING GALECTIN-1 EXPRESSION, CANCER CELL PROLIFERATION, INVASION, AND TUMORIGENESIS” (ONCOETHIX SA, priority 2011, published 2014)
